In experiment [1] the test system is MCF7. In words: Antiproliferative activity against human MCF7 cells assessed as inhibition of cell viability incubated for 72 hrs by CCK8 assay. The experiment is classed as functional, cell-based. Particulars: MCF7, 72 h.
Experiment [2] relates to MV4-11. In words: Antiproliferative activity against human MV4-11 cells assessed as inhibition of cell viability incubated for 72 hrs by CCK8 assay. The experiment is classed as functional, cell-based. Particulars: MV4-11, 72 h. Background: Formazan colour is commonly taken as a measure of viable cells.
The test system of experiment [3] is A549. Nature of the experiment: Antiproliferative activity against human A549 cells assessed as inhibition of cell viability incubated for 72 hrs by CCK8 assay. The experiment is classed as functional, cell-based. Particulars: A549, 72 h.
For experiment [4], the system named is NCM460. In words: Antiproliferative activity against human NCM460 cells assessed as inhibition of cell viability incubated for 72 hrs by CCK8 assay. The experiment is classed as functional, cell-based. The conditions noted are these: NCM460, 72 h.
Experiment [5] concerns HCT-116. Nature of the experiment: Antiproliferative activity against human HCT-116 cells assessed as inhibition of cell viability incubated for 72 hrs by CCK8 assay. The experiment is classed as functional, cell-based. Particulars: HCT-116, 72 h.
For experiment [6], the target named is T1, Poly [ADP-ribose] polymerase 1 (Homo sapiens, UniProt P09874). Particulars: dose 10.0 nM, time 10.0 min.
T1 sequence (P09874 whole entry): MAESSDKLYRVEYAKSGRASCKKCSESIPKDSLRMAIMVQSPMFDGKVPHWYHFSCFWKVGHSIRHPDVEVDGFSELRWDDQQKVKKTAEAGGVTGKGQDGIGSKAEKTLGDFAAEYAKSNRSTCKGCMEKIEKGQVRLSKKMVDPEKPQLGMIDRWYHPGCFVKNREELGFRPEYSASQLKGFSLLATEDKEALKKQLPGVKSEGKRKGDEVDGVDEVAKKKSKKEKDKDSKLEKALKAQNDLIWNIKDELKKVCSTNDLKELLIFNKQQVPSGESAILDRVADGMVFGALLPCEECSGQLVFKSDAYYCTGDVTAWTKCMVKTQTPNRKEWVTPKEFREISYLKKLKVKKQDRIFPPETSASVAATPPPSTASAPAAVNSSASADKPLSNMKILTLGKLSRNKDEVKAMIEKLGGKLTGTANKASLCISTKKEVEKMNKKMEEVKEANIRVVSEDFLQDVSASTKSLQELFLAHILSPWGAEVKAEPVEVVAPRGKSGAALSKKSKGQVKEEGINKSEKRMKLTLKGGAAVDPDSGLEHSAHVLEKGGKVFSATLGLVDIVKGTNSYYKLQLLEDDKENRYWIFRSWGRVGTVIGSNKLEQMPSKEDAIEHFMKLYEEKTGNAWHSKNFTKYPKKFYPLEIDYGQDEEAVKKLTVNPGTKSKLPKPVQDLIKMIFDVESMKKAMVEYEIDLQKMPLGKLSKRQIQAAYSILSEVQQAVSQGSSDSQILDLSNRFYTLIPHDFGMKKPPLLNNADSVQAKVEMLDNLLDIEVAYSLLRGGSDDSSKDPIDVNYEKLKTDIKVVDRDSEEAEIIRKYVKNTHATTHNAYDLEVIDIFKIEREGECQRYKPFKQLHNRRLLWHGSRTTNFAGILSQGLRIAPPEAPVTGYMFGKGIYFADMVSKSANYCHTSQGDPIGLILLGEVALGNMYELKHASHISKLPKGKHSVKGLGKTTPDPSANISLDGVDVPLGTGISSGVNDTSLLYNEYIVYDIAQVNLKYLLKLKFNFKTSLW
For experiment [7], the target named is T1, Poly [ADP-ribose] polymerase 1. Nature of the experiment: Inhibition of PARP1 (unknown origin) incubated for 10 mins by chemiluminescence assay.

Among the data in ChEMBL document CHEMBL5634133, “Indirubin derivatives as bifunctional molecules inducing DNA damage and targeting PARP for the treatment of cancer” (Eur J Med Chem, 2023) are IC50 and inhibition values, retold here.

SMILES strings stand for the structures. Bounds are passed on as bounds.

On to `O=C1Nc2ccccc2/C1=C1/Nc2ccccc2/C1=N\OCCCCCCC(=O)N1CCN(C(=O)c2ccc(Cc3n[nH]c(=O)c4ccccc34)cc2F)CC1`, for which the IC50 (as a rule, the concentration needed to halve the response being measured) in experiment [1] is over 50 µM; in experiment [2] it was over 50 µM; in experiment [3], over 50 µM; in experiment [4], over 60 µM; in experiment [5] it was 39.2 µM.
With `O=C1Nc2ccc(Br)cc2/C1=C1/Nc2ccc(Br)cc2/C1=N\OCCCC(=O)N1CCN(C(=O)c2cc(Cc3n[nH]c(=O)c4ccccc34)ccc2F)CC1`, the inhibition – broadly, the drop in the measured response relative to a control, in per cent – in experiment [6] worked out at 31.1%. Further, the half-maximal inhibitory concentration (IC50) was 48.7 µM in experiment [1]; 48.4 µM in experiment [2]; 47.2 µM in experiment [3]; over 60 µM in experiment [4]; 8.21 µM in experiment [5].
For `NC(=O)c1cccc2cn(-c3ccc([C@@H]4CCCN(C(=O)CCCCCO/N=C5/C(=C6/C(=O)Nc7ccccc76)Nc6ccccc65)C4)cc3)nc12`, the IC50 is over 50 µM in experiment [1]; 47 µM in experiment [2]; over 50 µM in experiment [3]; over 60 µM in experiment [4]; 29.4 µM in experiment [5].
For the compound `NC(=O)c1cccc2cn(-c3ccc([C@@H]4CCCN(C(=O)c5ccc(CO/N=C6/C(=C7/C(=O)Nc8ccccc87)Nc7ccccc76)cc5)C4)cc3)nc12`, the IC50 was 47.3 µM in experiment [1]; 39.6 µM in experiment [2]; 49.1 µM in experiment [3]; over 60 µM in experiment [4]; 31.3 µM in experiment [5].
As to `O=C1Nc2ccccc2/C1=C1/Nc2ccccc2/C1=N\OCCCCNC(=O)c1cc(Cc2n[nH]c(=O)c3ccccc23)ccc1F`, the IC50 in experiment [1] turned out to be 1.82 µM; in experiment [2], 11.7 µM; in experiment [3], 4.41 µM; in experiment [4] it was 8.04 µM; in experiment [5] it was 3.1 µM.
On to `O=C1Nc2ccccc2/C1=C1/Nc2ccccc2/C1=N\OCc1ccc(C(=O)N2CCN(C(=O)c3cc(Cc4n[nH]c(=O)c5ccccc45)ccc3F)CC2)cc1`, for which the IC50 in experiment [1] is 43.8 µM; in experiment [2] it was 33.1 µM; in experiment [3] it was 42.7 µM; in experiment [4], over 60 µM; in experiment [5] it was 27.4 µM.
Take `O=C1Nc2ccccc2/C1=C1/Nc2ccccc2/C1=N\OCC1CCN(C(=O)c2cc(Cc3n[nH]c(=O)c4ccccc34)ccc2F)CC1`: the IC50 in experiment [1] was over 50 µM; in experiment [2], 47.5 µM; in experiment [3], over 50 µM; in experiment [4], over 60 µM; in experiment [5] it was 45 µM.
Turning to `O=C1Nc2ccccc2/C1=C1/Nc2ccccc2/C1=N\OCCCCCCCC(=O)N1CCN(C(=O)c2ccc(Cc3n[nH]c(=O)c4ccccc34)cc2F)CC1`, the IC50 in experiment [1] was over 50 µM; in experiment [2], over 50 µM; in experiment [3], over 50 µM; in experiment [4], over 60 µM; in experiment [5], 43.9 µM.
For the compound `NC(=O)c1cccc2cn(-c3ccc([C@@H]4CCCN(C(=O)CCCCCCCO/N=C5/C(=C6/C(=O)Nc7ccccc76)Nc6ccccc65)C4)cc3)nc12`, the IC50 was over 50 µM in experiment [1]; over 50 µM in experiment [2]; over 50 µM in experiment [3]; over 60 µM in experiment [4]; over 50 µM in experiment [5].
As to `O=C1Nc2ccccc2/C1=C1/Nc2ccc(F)cc2/C1=N\OCCCC(=O)N1CCN(C(=O)c2cc(Cc3n[nH]c(=O)c4ccccc34)ccc2F)CC1`, the IC50 was 0.00446 µM in experiment [7]; 32.4 µM in experiment [1]; 21.6 µM in experiment [2]; 25 µM in experiment [3]; over 60 µM in experiment [4]; 17.8 µM in experiment [5]. In addition, the inhibition in experiment [6] turned out to be 55.8%.
As for `NC(=O)c1cccc2cn(-c3ccc([C@@H]4CCCN(C(=O)CCCCO/N=C5/C(=C6/C(=O)Nc7ccccc76)Nc6ccccc65)C4)cc3)nc12`, the IC50 in experiment [1] was 41.9 µM; in experiment [2], 36.2 µM; in experiment [3], 48.2 µM; in experiment [4], over 60 µM; in experiment [5], 27.3 µM.
For `O=C1Nc2ccc(Cl)cc2/C1=C1/Nc2ccccc2/C1=N\OCCCC(=O)N1CCN(C(=O)c2cc(Cc3n[nH]c(=O)c4ccccc34)ccc2F)CC1`, the IC50 in experiment [1] is over 50 µM; in experiment [2], over 50 µM; in experiment [3], over 50 µM; in experiment [4] it was over 60 µM; in experiment [5] it was 28.3 µM.
As for `O=C1Nc2ccc(F)cc2/C1=C1/Nc2ccccc2/C1=N\OCCCC(=O)N1CCN(C(=O)c2cc(Cc3n[nH]c(=O)c4ccccc34)ccc2F)CC1`, the IC50 in experiment [7] is 0.00225 µM; in experiment [1] it was 38.7 µM; in experiment [2] it was 23.8 µM; in experiment [3] it was 34.7 µM; in experiment [4], over 60 µM; in experiment [5] it was 19.3 µM. The inhibition in experiment [6] came out at 54.9%.
On to `O=C1Nc2ccc(F)cc2/C1=C1/Nc2ccc(F)cc2/C1=N\OCCCC(=O)N1CCN(C(=O)c2cc(Cc3n[nH]c(=O)c4ccccc34)ccc2F)CC1`, for which the inhibition in experiment [6] was 49.9%. The IC50 in experiment [1] was 45.3 µM; in experiment [2], 44.4 µM; in experiment [3] it was 42.3 µM; in experiment [4], over 60 µM; in experiment [5], 0.75 µM.
For the compound `O=C1Nc2ccccc2/C1=C1/Nc2ccccc2/C1=N\OCCCCCCNC(=O)c1cc(Cc2n[nH]c(=O)c3ccccc23)ccc1F`, the IC50 is over 50 µM in experiment [1]; over 50 µM in experiment [2]; over 50 µM in experiment [3]; over 60 µM in experiment [4]; 47.2 µM in experiment [5].
On to `O=C1Nc2ccccc2/C1=C1/Nc2ccccc2/C1=N\OCCCCCC(=O)N1CCN(C(=O)c2ccc(Cc3n[nH]c(=O)c4ccccc34)cc2F)CC1`, for which the IC50 is over 50 µM in experiment [1]; over 50 µM in experiment [2]; over 50 µM in experiment [3]; over 60 µM in experiment [4]; 32.4 µM in experiment [5].
Consider `O=C1Nc2ccccc2/C1=C1/Nc2ccccc2/C1=N\OCCCNC(=O)c1cc(Cc2n[nH]c(=O)c3ccccc23)ccc1F`, for which the IC50 was determined as 6.89 µM in experiment [1]; 14.9 µM in experiment [2]; 8.22 µM in experiment [3]; 9.37 µM in experiment [4]; 13.7 µM in experiment [5].
Regarding `O=C1Nc2ccccc2/C1=C1/Nc2ccccc2/C1=N\OCCCCCNC(=O)c1cc(Cc2n[nH]c(=O)c3ccccc23)ccc1F`, the IC50 in experiment [1] was over 50 µM; in experiment [2] it was over 50 µM; in experiment [3], over 50 µM; in experiment [4] it was over 60 µM; in experiment [5], 25.5 µM.
For the compound `NC(=O)c1cccc2cn(-c3ccc([C@@H]4CCCN(C(=O)CCCCCCO/N=C5/C(=C6/C(=O)Nc7ccccc76)Nc6ccccc65)C4)cc3)nc12`, the IC50 is over 50 µM in experiment [1]; over 50 µM in experiment [2]; over 50 µM in experiment [3]; over 60 µM in experiment [4]; over 50 µM in experiment [5].
For the compound `O=C1Nc2ccccc2/C1=C1/Nc2ccccc2/C1=N\OCCCCC(=O)N1CCN(C(=O)c2ccc(Cc3n[nH]c(=O)c4ccccc34)cc2F)CC1`, the IC50 in experiment [1] was 44.3 µM; in experiment [2] it was 38.7 µM; in experiment [3] it was 37.6 µM; in experiment [4], over 60 µM; in experiment [5] it was 21.1 µM.
For `O=C1Nc2ccccc2/C1=C1/Nc2ccccc2/C1=N\OCCCCCCCNC(=O)c1cc(Cc2n[nH]c(=O)c3ccccc23)ccc1F`, the IC50 is over 50 µM in experiment [1]; over 50 µM in experiment [2]; over 50 µM in experiment [3]; over 60 µM in experiment [4]; over 50 µM in experiment [5].
